From patent US20050197350A1, “Novel quinoline, tetrahydroquinazoline, and pyrimidine derivatives and methods of treatment related to the use thereof” (TAISHO PHARMACEUTICAL CO., LTD., priority 2003, published 2005)
Where a name gives a salt, the structure may show the parent alone. Read-outs that look alike come from different tables or passages of the source.

Assays:
MCH receptor = MCH receptor (Homo sapiens, UniProt Q99705); assay: High throughput functional screening FLIPR/FDSS6000 (intracellular Ca2+ evoked by MCH); assay type: cell-based; settings: FLIPR/FDSS, antagonist activity vs 50 nM MCH, class by percent of control at 10^−7 M or IC50, read-out: class
Source text: High Throughput Functional Screening: FLIPR™
This assay utilized a non-endogenous, constitutively active version of the MCH receptor.
The concentration of free Ca^2+ in the cytosol of any cell is extremely low, whereas its concentration in the extracellular fluid and endoplasmic reticulum (ER) is very high. Thus, there is a large gradient tending to drive Ca^2+ into the cytosol across both the plasma membrane and ER. The FLIPR™ and FDSS6000™ systems (Molecular Devices Corporation, […] Photonics K.K.) are designed to perform functional cell-based assays, such as the measurement of intracellular calcium for high-throughput screening. The measurement of fluorescent is associated with calcium release upon activation of the Gq-coupled receptors.
Fluorometric Imaging Plate Reader system was used to allow for rapid, kinetic measurements of intracellular fluorescence in 96 well microplates (or 384 well microplates). Simultaneous measurements of fluorescence in all wells can be made by FLIPR or FDSS6000™ every second with high sensitivity and precision. These systems are ideal for measuring cell-based functional assays such as monitoring the intracellular calcium fluxes that occur within seconds after activation of the Gq coupled receptor.
Briefly, the cells are seeded into 96 well at 5.5×10^4 cells/well with complete culture media (Dulbecco's Modified Eagle Medium with 10% fetal bovine serum, 2 mM L-glutamine, 1 mM sodium pyruvate and 0.5 mg/ml G418, pH 7.4) for the assay next day. On the day of assay, the media is removed and the cells are incubated with 100 μl of loading buffer (4 μM Fluo4-AM in complete culture media containing 2.5 mM Probenicid, 0.5 mg/ml and 0.2% bovine serum albumin) in 5% CO2 incubator at 37° C. for 1 hr. The loading buffer is removed, and the cells are washed with wash buffer (Hank's Balanced Salt Solution containing 2.5 mM Probenicid, 20 mM HEPES, 0.5 mg/ml and 0.2% bovine serum albumin, pH 7.4)). One hundred fifty μl of wash buffer containing various concentrations of test compound is added to the cells, and the cells are incubated in 5% CO2 incubator at 37° C. for 30 min. […] 530 nm for 290 second. When antagonist activity of compound is tested, 50 nM of MCH is used.
Use of FLIPR™ and FDSS6000™ can be accomplished by following manufacturer's instruction (Molecular Device Corporation and […] Photonics K.K.).

MCH receptors = assay: MCH receptor activity class (method not given)
[1] = activity class 1-3: percent of control at 10^-7 M or IC50
[2] = MCH receptor, class by percent of control at 10^-7 M or IC50
[3] = class by percent of control at 10^-7 M or IC50
[4] = class by percent of control at 10^−7 M or IC50

## COc1ccc(NC(=O)N[C@H]2CC[C@@H](Nc3ncc(C)c(N(C)C)n3)CC2)cc1OC [Example 3323, N-(3,4-dimethoxyphenyl)-N′-(cis-4-{[4-(dimethylamino)-5-methylpyrimidin-2-yl]amino}cyclohexyl)urea]
MCH receptor
  IC50: < 50 nM

## Cc1cnc(N[C@H]2CC[C@@H](NC(=O)c3cccnc3Oc3ccc(F)cc3)CC2)nc1N(C)C [Example 3123, N-[cis-4-(4-Dimethylamino-5-methyl-pyrimidin-2-ylamino)-cyclohexyl]-2-(4-fluoro-phenoxy)-nicotinamide hydrochloride]
MCH receptor; table after the classification
  IC50: < 50 nM

## O=C(N[C@H]1CC[C@@H](Nc2cc(Cl)c3ccccc3n2)CC1)c1ccc(F)c(F)c1 [Example 3117, N-[cis-4-(4-Chloro-quinolin-2-ylamino)-cyclohexyl]-3,4-difluoro-benzamide hydrochloride]
MCH receptor; table after the classification
  IC50: < 50 nM

## CCN(C(=O)N[C@H]1CC[C@@H](Nc2ncc(C)c(N(C)C)n2)CC1)c1ccc(Cl)cc1 [Example 3353, N-(4-chlorophenyl)-N′-(cis-4-{[4-(dimethylamino)-5-methylpyrimidin-2-yl]amino}cyclohexyl)-N-ethylurea]
MCH receptor
  IC50: < 50 nM

## O=C(N[C@H]1CC[C@@H](Nc2ccc3ccccc3n2)CC1)c1ccc(F)c(F)c1 [Example 3031, 3,4-Difluoro-N-[cis-4-(quinolin-2-ylamino)-cyclohexyl]-benzamide hydrochloride]
MCH receptor; table after the classification
  IC50: < 50 nM

## Cc1cc(N[C@H]2CC[C@@H](NC(=O)c3cccnc3N)CC2)nc2ccccc12 [Example 3161, 2-Amino-N-[cis-4-(4-methyl-quinolin-2-ylamino)-cyclohexyl]-nicotinamide dihydrochloride]
MCH receptor; table after the classification
  IC50: 50 to 200 nM

## Cc1cnc(N[C@H]2CC[C@@H](NC(=O)[C@@H]3C[C@H]3c3ccc(Cl)cc3)CC2)nc1N(C)C (relative stereo) [Example 3316, trans-2-(4-chlorophenyl)-N-(cis-4-{[4-(dimethylamino)-5-methylpyrimidin-2-yl]amino}cyclohexyl)-cyclopropanecarboxamide]
MCH receptor
  IC50: < 50 nM

## Cc1cnc(N[C@H]2CC[C@@H](NC(=O)Nc3ccccc3OC(F)(F)F)CC2)nc1N(C)C [Example 3330, N-(cis-4-{[4-(dimethylamino)-5-methylpyrimidin-2-yl]amino}cyclohexyl)-N′-[2-(trifluoromethoxy)phenyl]urea]
MCH receptor
  IC50: < 50 nM

## CCN(C(=O)N[C@H]1CC[C@@H](Nc2ncc(C)c(N(C)C)n2)CC1)c1ccccc1OC(F)(F)F [Example 3349, N′-(cis-4-{[4-(dimethylamino)-5-methylpyrimidin-2-yl]amino}cyclohexyl)-N-ethyl-N-[2-(trifluoromethoxy)-phenyl]urea]
MCH receptor
  IC50: 50 to 200 nM

## COc1nc(N[C@H]2CC[C@@H](NC(=O)c3cc(C(F)(F)F)cc(C(F)(F)F)c3)CC2)ncc1C [Example 3280, N-{cis-4-[(4-methoxy-5-methylpyrimidin-2yl)amino]cyclohexyl}-3,5-bis(trifluoromethyl)benzamide]
MCH receptor
  IC50: > 200 nM

## COCCOC(=O)N[C@H]1CC[C@@H](Nc2nc3c(c(N(C)C)n2)CCCC3)CC1 [compound 1585]
MCH receptors; [1]
  class: 3 (Class 3 The value of percent of control at 10^−7 M was more than 60% or the value of IC50 was more than 200 nM.)

## CC(C)c1ccc(NC(=S)N[C@H]2CC[C@@H](Nc3nc4c(c(N(C)C)n3)CCCC4)CC2)c(Br)c1 [compound 2060]
MCH receptors; [2]
  class: 3 (Class 3 The value of percent of control at 10^−7 M was more than 60% or the value of IC50 was more than 200 nM.)

## CCCc1ccccc1NC(=O)NC[C@H]1CC[C@@H](Nc2nccc(N(C)C)n2)CC1 [compound 2428, N-[(cis-4-{[4-(dimethylamino)pyrimidin-2-yl]amino}cyclohexyl)methyl]-N′-(2-propylphenyl)urea]
MCH receptors; MCH receptor activity class 1-3 (percent of control at 10^-7 M or IC50)
  class: 2 (Class 2: The value of percent of control at 10^−7 M was from 40% to 60% or the value of IC′50 was from 50 nM to 200 nM.)

## COc1ccc(-c2ccccc2)cc1NC(=S)N[C@H]1CC[C@@H](Nc2nc3c(c(N(C)C)n2)CCCC3)CC1 [compound 1945]
MCH receptors; [2]
  class: 3 (Class 3 The value of percent of control at 10^−7 M was more than 60% or the value of IC50 was more than 200 nM.)

## Cc1ccc(OC(=O)NC[C@H]2CC[C@@H](Nc3cc(N(C)C)c4ccccc4n3)CC2)cc1 [compound 1574]
MCH receptors; [1]
  class: 3 (Class 3 The value of percent of control at 10^−7 M was more than 60% or the value of IC50 was more than 200 nM.)

## CN(C)c1nc(N[C@H]2CC[C@@H](NC(=S)Nc3ccc(S(=O)(=O)N4CCCCC4)cc3)CC2)nc2c1CCCC2 [compound 2057]
MCH receptors; [2]
  class: 3 (Class 3 The value of percent of control at 10^−7 M was more than 60% or the value of IC50 was more than 200 nM.)

## CN(C)c1nc(N[C@H]2CC[C@@H](CNC(=O)c3c(F)cccc3F)CC2)nc2c1CCCC2 [compound 664]
MCH receptors; [3]
  class: 3 (Class 3 The value of percent of control at 10^−7 M was more than 60% or the value of IC50 was more than 200 nM.)

## CN(C)c1ccnc(N[C@H]2CC[C@@H](NC(=O)c3ccccc3CCc3ccccc3)CC2)n1 [compound 872]
MCH receptors; [3]
  class: 3 (Class 3 The value of percent of control at 10^−7 M was more than 60% or the value of IC50 was more than 200 nM.)

## CN(C)c1cc(N[C@H]2CC[C@@H](NC(=O)OCC3c4ccccc4-c4ccccc43)CC2)nc2ccccc12 [compound 1557]
MCH receptors; [1]
  class: 3 (Class 3 The value of percent of control at 10^−7 M was more than 60% or the value of IC50 was more than 200 nM.)

## CN(C)c1cc(N[C@H]2CC[C@@H](CNC(=O)c3ccc(Cl)c([N+](=O)[O-])c3)CC2)nc2ccccc12 [compound 154]
MCH receptors; [2]
  class: 3 (Class 3 The value of percent of control at 10^−7 M was more than 60% or the value of IC50 was more than 200 nM.)

## CN(C)c1ccnc(N[C@H]2CC[C@@H](NC(=O)CC3CCCC3)CC2)n1 [compound 293]
MCH receptors; [3]
  class: 3 (Class 3 The value of percent of control at 10^−7 M was more than 60% or the value of IC50 was more than 200 nM.)

## COc1ccc2c(CC(=O)N[C@H]3CC[C@@H](Nc4nccc(N(C)C)n4)CC3)cc(=O)oc2c1 [compound 854]
MCH receptors; [3]
  class: 3 (Class 3 The value of percent of control at 10^−7 M was more than 60% or the value of IC50 was more than 200 nM.)

## CN(C)c1nc(N[C@H]2CC[C@@H](CNCc3cn(C)c4ccccc34)CC2)nc2c1CCCC2 [compound 1421]
MCH receptors; [3]
  class: 3 (Class 3 The value of percent of control at 10^−7 M was more than 60% or the value of IC50 was more than 200 nM.)

## Cc1ccc(CNC[C@H]2CC[C@@H](Nc3nc4c(c(N(C)C)n3)CCCC4)CC2)cc1I [compound 1508]
MCH receptors; [3]
  class: 3 (Class 3 The value of percent of control at 10^−7 M was more than 60% or the value of IC50 was more than 200 nM.)

## Cc1cnc(N[C@H]2CC[C@@H](CNC(=O)c3cccnc3Oc3ccccc3Br)C2)nc1N(C)C [compound 3014]
MCH receptors; [4]
  class: 3 (Class 3 The value of percent of control at 10^−7 M was more than 60% or the value of IC50 was more than 200 nM.)

## Cc1ccccc1NC(=O)N[C@H]1CC[C@@H](Nc2nc3c(c(N(C)C)n2)CCCC3)CC1 [compound 1668]
MCH receptors; [1]
  class: 3 (Class 3 The value of percent of control at 10^−7 M was more than 60% or the value of IC50 was more than 200 nM.)

## CN(C)c1nc(N[C@H]2CC[C@@H](NC(=S)Nc3ccc(-c4cnco4)cc3)CC2)nc2c1CCCC2 [compound 2086]
MCH receptors; [3]
  class: 3 (Class 3 The value of percent of control at 10^−7 M was more than 60% or the value of IC50 was more than 200 nM.)

## COCCOC(=O)NC[C@H]1CC[C@@H](Nc2nccc(N(C)C)n2)CC1 [compound 1645]
MCH receptors; [1]
  class: 3 (Class 3 The value of percent of control at 10^−7 M was more than 60% or the value of IC50 was more than 200 nM.)

## CN(C)c1ccnc(N[C@H]2CC[C@@H](CNCc3cc(F)cc(C(F)(F)F)c3)CC2)n1 [compound 1319]
MCH receptors; [3]
  class: 3 (Class 3 The value of percent of control at 10^−7 M was more than 60% or the value of IC50 was more than 200 nM.)

## CN(C)c1nc(N[C@H]2CC[C@@H](NC(=S)Nc3ccc(SC(F)(F)F)cc3)CC2)nc2c1CCCC2 [compound 1990]
MCH receptors; [2]
  class: 3 (Class 3 The value of percent of control at 10^−7 M was more than 60% or the value of IC50 was more than 200 nM.)

## CCOc1cccc(C(=O)N[C@H]2CC[C@@H](Nc3nc(C)cc(N(C)C)n3)CC2)c1 [compound 2976, N-(cis-4-{[4-(dimethylamino)-6-methylpyrimidin-2-yl]amino}cyclohexyl)-3-ethoxybenzamide]
MCH receptors; [4]
  class: 2 (Class 2: The value of percent of control at 10^−7 M was from 40% to 60% or the value of IC′50 was from 50 nM to 200 nM.)
